In US6774131B1, “Remedies for endothelin-induced diseases” (Yamanouchi Pharmaceutical Co., Ltd., priority 2000, dated 2004):
One block for each molecule: values may come before it.

Key:
[1] = tested on: mouse formalin-induced pain model; assay: ET-1-induced enhancement of pain responses in mouse formalin-induced pain model; format: in vivo
Experimental: Suppressive effects of Compound 1 to the enhancement of pain responses induced by ET-1 in mouse formalin-induced pain model
Male ICR mice (age of 5 weeks; Nippon SLC) were used in these experiments.
The mice were placed in a cage for observation, to acclimate the mice to the environment for 5 minutes or longer; then, physiological saline of 20 μl was subcutaneously injected to the mouse left hind paws, while 0.7% formalin-containing physiological saline of 20 μl was subcutaneously injected to the mouse right hind paws. The duration of licking and biting reactions emerging immediately thereafter was counted every 5 minutes, for 40 minutes. After the termination of the counting, both the ankles were amputated and weighed. The reaction time immediately after formalin injection to 5 minutes later was defined as first phase; and the 30 minutes reaction time from 10 minutes after injection until 40 minutes later was defined in total as second phase, which were used as the indices of pain. Additionally, the edema calculated on the basis of the right foot weight minus the left foot weight (in mg) was used as an index of inflammatory reaction. Additionally, in all cases the licking reaction time was counted between 10:00 and 18:00.
0.7% formalin-containing physiological saline containing ET-1 at doses of 3, 10 and 30 pmol/paw was subcutaneously injected in the right hind paws to examine the action of ET-1 to enhance formalin-induced pain and edema.
Compound 1 (0.3 to 3 mg/kg) was orally administered at a dose of 1 ml/100 g. Sixty minutes after oral administration, 0.7% formalin-containing physiological saline containing ET-1 (10 pmol/paw) was subcutaneously injected in the right hind paws, to examine the effect of the Compound 1 on the ET-1-induced enhancements of formalin-induced pain and edema.
The results are shown in the form of mean±standard error. The significant difference between two groups was calculated the p-value by Students unpaired t-test. The significant difference between groups was analyzed by one-way analysis of variance, to calculate the p-values by the Dunnett's multiple range test. The p-value below 5% was defined as statistically significant.

prostate cancer patients = assay: Clinical study in prostate cancer patients; format: in vivo, human
Experimental: A clinical study was carried out under the following conditions using the patients suffering from prostate cancer.
Subjects: eighteen patients of at least 45 years of age with prostate cancer(stage D2) who are hormone-refractory or have relapsed after anti-androgen therapy.
Strength: 2,10 and 40 mg tablets
Dosage: 2,4,10,20,60,120and 240 mg/day-dose frequency was once daily ot twice daily
Duration of treatment: four weeks (28 days)
Parameters for evalution: Evaluations and measurements were made for the following items before and after the administration.
(1) Prostate specific antigen (PSA)
(2) Born metabolism markers (bone alkaline phosphatase or ratio of deoxypyridinoline/creatinine)
(3) Bone pain (change of visual analogue scale(VAS)/use of analgesics)

[2] = Plasma concentration when orally administered to humans; format: in vivo, human
Experimental: For the purpose of the assessment of the pharmacokinetics, tolerance and safety of Compound 1 when orally administered, the Compound 1 was administered at a single dose of 10 mg to 3 subjects of progressive prostate cancer patients after prostatectomy. So as to assay the plasma concentration of intact Compound 1, blood of 6 ml was collected in a lithium heparin-containing polyethylene tube, prior to administration and at individual times of 30 minutes, one hour, 1.5 hour, 2 hours, 3 hours, 4 hours, 6 hours, 8 hours, 12 hours, 24 hours, 36hours and 48hours after administration, followed by immediate centrifugation (4° C., 10 minutes, 3500 rpm), to recover the plasma. The plasma samples were stored under freezing at −70° C. until the concentration was assayed. The plasma concentration was assayed by the LC-MS/MS method.

human ETA receptor = biological target: T1, human ETA receptor (Homo sapiens, UniProt P25101); details: Compound 1: WO97/22595; ABT-627: J.Pharmacol.Exp.Ther.,276,473-481,1996; read-out: affinity to human ETA receptor; cited from earlier work
T1 sequence (P25101 21-427): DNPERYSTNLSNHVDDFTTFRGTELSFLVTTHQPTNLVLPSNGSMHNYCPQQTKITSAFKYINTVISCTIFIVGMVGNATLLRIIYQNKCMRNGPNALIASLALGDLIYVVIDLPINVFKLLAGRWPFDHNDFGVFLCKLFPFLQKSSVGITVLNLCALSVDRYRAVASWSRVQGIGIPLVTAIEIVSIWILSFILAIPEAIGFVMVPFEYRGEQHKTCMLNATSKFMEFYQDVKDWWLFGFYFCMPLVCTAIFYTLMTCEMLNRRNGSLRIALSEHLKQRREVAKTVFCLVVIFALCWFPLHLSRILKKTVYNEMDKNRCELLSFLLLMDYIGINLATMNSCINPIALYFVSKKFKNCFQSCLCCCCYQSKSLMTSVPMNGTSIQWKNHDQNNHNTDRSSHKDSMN

[3] = 0.3, 1 and 3 mg/kg p.o., 60 min before ET-1 10 pmol/paw
[4] = 2-240 mg/day, four weeks, eighteen patients
[5] = single oral dose 10 mg, prostate cancer patients, plasma

- AUC ratio Compound 1 (10 mg)/ABT-627 (20 mg) ([2]; oral, humans, listed as The effective component of the invention): about 18 fold
- AUC [2, 5]: 14700 ng·h/mL
- Cmax [2, 5]: 1000 ng/mL
- T max [2, 5]: 2 h
- T ½ [2, 5]: 13 h
Molecule: COc1ccccc1Oc1c(NS(=O)(=O)C=Cc2ccccc2)nc(-c2ncccn2)nc1OC.[K] [Compound 1, N-[6-methoxy-5-(2-methoxyphenoxy)-2-(2-pyrimidinyl)-4-pyrimidinyl]-2-phenylethenesulfoneamide•potassium salt]
- suppression of ET-1-induced enhancement of formalin-induced edema [1, 3]: significantly suppressed
- suppression of ET-1-induced enhancement of formalin-induced pain, first phase [1, 3]: significantly suppressed
- suppression of ET-1-induced enhancement of formalin-induced pain, second phase [1, 3]: significantly suppressed
- effective dose relative to the minimum effective dose of ABT-627 (prostate cancer patients; 2 mg vs 10 mg): ⅕
- patients with decreased bone specific alkaline phosphatase (prostate cancer patients; [4]): eleven (out of eighteen)
- patients with improved pain score VAS (prostate cancer patients; [4]): nine (out of eighteen)
- patients with improved prostate cancer marker PSA (prostate cancer patients; [4]): ten
- patients with improved ratio of deoxypyridinoline/creatinine (prostate cancer patients; [4]): fourteen (out of eighteen)
- patients with reduced analgesics (prostate cancer patients; [4]): four (out of eighteen)
- patients with stabilized PSA (prostate cancer patients; [4]): two
- dose from which effective (prostate cancer patients; Test Example 5, prostate cancer patients): ≥ 2 mg
- dose from which effective in improving each observed item (prostate cancer patients; oral tablets, four weeks): ≥ 2 mg/day
- Ki (human ETA receptor): 0.697 nM

Molecule: ET-1: endothelin; induces pain in humans and experimental animals; used as stimulus of pain, Ca2+ increase and cell growth [reference compound]
- ET-1-induced enhancement of formalin-induced edema ([1]; ET-1 3, 10 and 30 pmol/paw with 0.7% formalin s.c. in hind paw): significantly enhanced
- ET-1-induced enhancement of formalin-induced pain, first phase ([1]; ET-1 3, 10 and 30 pmol/paw with 0.7% formalin s.c. in hind paw, 0-5 min): significantly enhanced
- ET-1-induced enhancement of formalin-induced pain, second phase ([1]; ET-1 3, 10 and 30 pmol/paw with 0.7% formalin s.c. in hind paw, 10-40 min): significantly enhanced
